This passage reports relative viability results from the supplement of paper PMC10307832.

Holding throughout (test): relative viability (nuclei count vs DMSO), 5 days (fraction); higher = more cells survive
Compound in the assay “Zosuquidar + Bortezomib”: O[C@@H](COc1cccc2ncccc12)CN1CCN([C@@H]2c3ccccc3[C@@H]3[C@H](c4ccccc42)C3(F)F)CC1 [Zosuquidar] + CC(C)C[C@H](NC(=O)[C@H](Cc1ccccc1)NC(=O)c1cnccn1)B(O)O [Bortezomib] (partner 0.002 µM)
Summed up:
(§1)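 Relative viability equals treated-well nuclei counts divided by vehicle-well nuclei counts. Counts came from 4× images of lung cancer cell lines grown in 1536-well plates for 5 days after pin-tool dosing on the day after seeding. Dosing used one drug alone or a fixed anchor-drug dose plus five library-drug doses (not always all listed) in √10 steps, and values are medians of duplicate plates.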

Compound in the assay “Zosuquidar + Crizotinib”: O[C@@H](COc1cccc2ncccc12)CN1CCN([C@@H]2c3ccccc3[C@@H]3[C@H](c4ccccc42)C3(F)F)CC1 [Zosuquidar] + C[C@@H](Oc1cc(-c2cnn(C3CCNCC3)c2)cnc1N)c1c(Cl)ccc(F)c1Cl [Crizotinib] (partner 1 µM)
The essentials:
as §1

Compound in the assay “Zosuquidar + Dasatinib”: O[C@@H](COc1cccc2ncccc12)CN1CCN([C@@H]2c3ccccc3[C@@H]3[C@H](c4ccccc42)C3(F)F)CC1 [Zosuquidar] + Cc1nc(Nc2ncc(C(=O)Nc3c(C)cccc3Cl)s2)cc(N2CCN(CCO)CC2)n1 [Dasatinib] (partner 0.075 µM)
Summed up:
as §1

Compound in the assay “Kobe2602 + Trametinib”: C1=CC(=CC=C1NC(=S)NNC2=C(C=C(C=C2[N+](=O)[O-])C(F)(F)F)[N+](=O)[O-])F [Kobe2602] + CC(=O)Nc1cccc(-n2c(=O)n(C3CC3)c(=O)c3c(Nc4ccc(I)cc4F)n(C)c(=O)c(C)c32)c1 [Trametinib] (partner 0.02 µM)
Summed up: as §1

With UMC-11, the relative viability amounted to 0.654 with Zosuquidar + Bortezomib (first compound 0.01 µM); 0.715 with Zosuquidar + Bortezomib (first compound 0.03162 µM); 0.676 in the assay with Zosuquidar + Bortezomib (first compound 0.1 µM); 1.06 in the assay with Zosuquidar + Bortezomib (first compound 0.3162 µM); 0.625 with Zosuquidar + Bortezomib (first compound 1 µM); 0.494 with Zosuquidar + Crizotinib (first compound 0.01 µM). Further, the relative viability in the assay with Zosuquidar + Crizotinib (first compound 0.03162 µM) was 0.619; with Zosuquidar + Crizotinib (first compound 0.1 µM), 0.578; with Zosuquidar + Crizotinib (first compound 0.3162 µM), 0.622; with Zosuquidar + Crizotinib (first compound 1 µM), 0.564; in the assay with Zosuquidar + Dasatinib (first compound 0.01 µM) it was 0.428; with Zosuquidar + Dasatinib (first compound 0.03162 µM), 0.535. The relative viability with Zosuquidar + Dasatinib (first compound 0.1 µM) was 0.455; with Zosuquidar + Dasatinib (first compound 0.3162 µM), 0.486; with Zosuquidar + Dasatinib (first compound 1 µM), 0.518; in the assay with Kobe2602 + Trametinib (first compound 0.2 µM), 0.716; with Kobe2602 + Trametinib (first compound 0.6325 µM) it was 0.683; with Kobe2602 + Trametinib (first compound 2 µM) it was 0.751. For the same cell line, the relative viability with Kobe2602 + Trametinib (first compound 6.325 µM) is 0.747; with Kobe2602 + Trametinib (first compound 20 µM) it was 0.668.
